Reference: patent US7449545B2, “Antimicrobial bolisin peptides” (IPF Pharmaceuticals GmbH, priority 2001, dated 2008)
Ends that are not written are not given here.

Key:
Format in all cases: cell-based
[1] = tested on: Pseudomonas aeruginosa ATCC 9027; details: Mueller Hinton Broth; complete growth inhibition not achieved
Text: (§1) The bolisin analogues of the present invention were examined for their suitability as antibiotic therapeutical agents by means of various biological tests. Thus, the chemically synthesized peptides were examined for their antimicrobial effectiveness against three Gram-positive and three Gram-negative bacterial strains as well as against a yeast.
(§2) The following microorganisms were used: • Gram-positive: Staphylococcus aureus ATCC 25923 • Enterococcus faecalis ATCC 51299 (vancomycin-resistant) • Streptococcus pneumoniae DSM 11865 (penicillin-resistant) • Gram-negative: Escherichia coli ATCC 25922 • Pseudomonas aeruginosa ATCC 9027 • Klebsiella pneumoniae ATCC 10031 • Yeast: Candida albicans ATCC 10231
(§3) The antibiotic activity of bolisin analogues was examined by determining the minimum inhibition concentration. The minimum inhibition concentration of an analogue designates the lowest peptide concentration which is required to inhibit the growth of microorganisms completely after an incubation time of 18±2 h. This method allows to obtain a quantitative result about the antimicrobial potency of the peptides. These examinations were performed by analogy with the recommendations (M7-A3) edited by the NCCLS (National Committee for Clinical Laboratory Standards) by applying a dilution test in a liquid medium using chemically synthesized peptides (peptide sequences according to claims 1 to 3). Mueller Hinton Broth was used as the test medium according to the NCCLS recommendations unless indicated otherwise. […] The minimum inhibition concentrations are stated in [μg/ml].
(§4) A complete growth inhibition could not be achieved in this case. For determining the minimum inhibition concentration, the following microorganisms were used: • 1. Staphylococcus aureus ATCC 25923 • 2. Enterococcus faecalis ATCC 51299 (vancomycin-resistant) • 3. Streptococcus pneumoniae DSM 11865 (penicillin-resistant) • 4. Escherichia coli ATCC 25922 • 5. Pseudomonas aeruginosa ATCC 9027 • 6. Klebsiella pneumoniae ATCC 10031 • 7. Candida albicans ATCC 10231

[2] = tested on: Escherichia coli ATCC 25922; details: ATCC 25922, 2 h
Text: as §1, §2
as §3, with “The minimum inhibition concentration of an analogue designates the lowest peptide concentration which is required to inhibit the growth of microorganisms completely after an incubation time of 18±2 h.” left out
as §4

[3] = tested on: Staphylococcus aureus ATCC 25923; details: ATCC 25923, 2 h
Text: as §1, §2
as §3, with “The minimum inhibition concentration of an analogue designates the lowest peptide concentration which is required to inhibit the growth of microorganisms completely after an incubation time of 18±2 h.” left out
as §4

[4] = tested on: Streptococcus pneumoniae DSM 11865 (penicillin-resistant); details: DSM 11865, 2 h
Text: as §1, §2
as §3, with “The minimum inhibition concentration of an analogue designates the lowest peptide concentration which is required to inhibit the growth of microorganisms completely after an incubation time of 18±2 h.” left out
as §4

[5] = tested on: Candida albicans ATCC 10231; details: for minimum inhibition concentration: ATCC 10231, 2 h; for peptide concentration giving 75% inhibition of growth (value in parentheses): Mueller Hinton Broth, complete growth inhibition not achieved
Text: as §1, §2
as §3, with “The minimum inhibition concentration of an analogue designates the lowest peptide concentration which is required to inhibit the growth of microorganisms completely after an incubation time of 18±2 h.” left out
as §4

[6] = tested on: Klebsiella pneumoniae ATCC 10031; details: ATCC 10031, 2 h
Text: as §1, §2
as §3, with “The minimum inhibition concentration of an analogue designates the lowest peptide concentration which is required to inhibit the growth of microorganisms completely after an incubation time of 18±2 h.” left out
as §4

[7] = tested on: Enterococcus faecalis ATCC 51299 (vancomycin-resistant); details: ATCC 51299, 2 h
Text: as §1, §2
as §3, with “The minimum inhibition concentration of an analogue designates the lowest peptide concentration which is required to inhibit the growth of microorganisms completely after an incubation time of 18±2 h.” left out
as §4

Substance | peptide concentration giving 75% inhibition of growth (value in parentheses) [1] | minimum inhibition concentration [2] [µg/mL] | minimum inhibition concentration [3] [µg/mL] | minimum inhibition concentration [4] [µg/mL] | minimum inhibition concentration [5] [µg/mL] | minimum inhibition concentration [6] [µg/mL] | minimum inhibition concentration [7] [µg/mL] | peptide concentration giving 75% inhibition of growth (value in parentheses) [5]
YIVYKIRSAWKRWKAL [BOL-67, YIVYKIRSAWKRWKAL] | (50) μg/ml | 25 | 25 | 100 | 18.75 | 37.5 | 100 | –
KYIVYKIRSARKRRKALK-OH [BOL-84, KYIVYKIRSARKRRKALK] | (75) μg/ml | >300 | >300 | 300 | 37.5 | 75 | >300 | –
YIVYKIRRAWKRWKALK-OH [BOL-55, YIVYKIRRAWKRWKALK] | (9.375) μg/ml | 12.5 | 12.5 | 37.5 | 9.375 | 3.125 | 50 | –
YIVWKIRSAWKRWKALK-OH [BOL-82, YIVWKIRSAWKRWKALK] | (9.375) μg/ml | 18.75 | 18.75 | 37.5 | 9.375 | 12.5 | 75 | –
YIVRKIRSAWKRRKALK-OH [BOL-80, YIVRKIRSAWKRRKALK] | (18.75) μg/ml | >300 | >300 | >300 | 37.5 | 150 | >300 | –
YIVYKIRSAWKRWKALK-OH [BOL-45, YIVYKIRSAWKRWKALK] | (25) μg/ml | 12.5 | 18.75 | 100 | 18.75 | 4.7 | 100 | –
KYIVYKIRWARKRRKALK-OH [BOL-87, KYIVYKIRWARKRRKALK] | (9.375) μg/ml | 18.75 | 9.375 | 9.375 | 9.375 | 9.375 | 37.5 | –
YIVYKIRWAKKRKKALK-OH [BOL-59, YIVYKIRWAKKRKKALK] | (18.75) μg/ml | 150 | 50 | 50 | – | 18.75 | 50 | (9.375) μg/ml
YIVWKIRSARKRRKALK-OH [BOL-74, YIVWKIRSARKRRKALK] | (12.5) μg/ml | 300 | 300 | 150 | 75 | 18.75 | 150 | –
YIVYKIRSAKKRKKALK-OH [BOL-56, YIVYKIRSAKKRKKALK] | (200) μg/ml | >300 | >300 | >300 | – | 300 | >300 | (300) μg/ml
